Measurements reported in patent publication US7994182B2 (Pecsi Tudomanyegyetem, priority 2003, dated 2011).
Like-named read-outs stand apart in the source and are kept apart here. Each block holds one compound with its values, some of them ahead of it.

How the values were obtained:
[1] = molecular target: T1, poly(ADP-ribose) polymerase enzyme isolated from rat liver (Rattus norvegicus, UniProt P27008); assay: In vitro inhibitory effect on PARP enzyme ([3H]-NAD+ incorporation); assay type: biochemical; conditions: 1 mM [3H]-NAD+, 15 minutes incubation
T1 construct: The poly(ADP-ribose) polymerase enzyme was isolated from rat liver as described earlier; from tissue; host or cells: rat liver
T1 sequence (P27008 whole entry): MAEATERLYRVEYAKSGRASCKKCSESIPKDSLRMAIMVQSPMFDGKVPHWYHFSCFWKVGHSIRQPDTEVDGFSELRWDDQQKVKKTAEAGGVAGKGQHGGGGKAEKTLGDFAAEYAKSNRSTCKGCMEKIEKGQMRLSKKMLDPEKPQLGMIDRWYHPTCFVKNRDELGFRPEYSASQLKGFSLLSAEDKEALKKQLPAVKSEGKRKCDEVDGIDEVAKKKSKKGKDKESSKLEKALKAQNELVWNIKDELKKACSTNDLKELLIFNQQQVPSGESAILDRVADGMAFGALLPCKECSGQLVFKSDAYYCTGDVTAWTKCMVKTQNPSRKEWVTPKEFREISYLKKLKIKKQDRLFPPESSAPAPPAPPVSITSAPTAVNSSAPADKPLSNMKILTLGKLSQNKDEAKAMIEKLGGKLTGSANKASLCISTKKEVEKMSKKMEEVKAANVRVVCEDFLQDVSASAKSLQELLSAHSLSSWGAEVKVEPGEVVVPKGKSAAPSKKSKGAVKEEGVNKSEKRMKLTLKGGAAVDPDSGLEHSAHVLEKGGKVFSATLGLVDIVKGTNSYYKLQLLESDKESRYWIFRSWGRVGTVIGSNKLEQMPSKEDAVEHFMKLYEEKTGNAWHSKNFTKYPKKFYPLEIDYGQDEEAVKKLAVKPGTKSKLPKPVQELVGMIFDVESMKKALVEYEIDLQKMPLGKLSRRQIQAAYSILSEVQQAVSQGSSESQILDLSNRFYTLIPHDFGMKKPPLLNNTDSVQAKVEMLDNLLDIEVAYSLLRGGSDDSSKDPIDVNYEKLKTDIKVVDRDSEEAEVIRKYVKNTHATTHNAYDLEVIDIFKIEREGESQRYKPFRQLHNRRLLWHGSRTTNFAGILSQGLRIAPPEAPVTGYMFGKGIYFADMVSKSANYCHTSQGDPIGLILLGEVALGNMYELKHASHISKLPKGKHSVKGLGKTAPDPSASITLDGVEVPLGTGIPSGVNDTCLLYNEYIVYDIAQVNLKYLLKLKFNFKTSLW
Procedure: The In Vitro Inhibitory Effect of 4-quinazolinone Derivatives on PARP Enzyme
The poly(ADP-ribose) polymerase enzyme was isolated from rat liver as described earlier. The putative inhibitory effect of 4-quinazolinone derivatives was examined in this experiment. The activity of the PARP enzyme was determined in 130 μl solution containing 100 mM Tris-HCl buffer (pH 8.0), 10 mM MgCl2, 10% glycerol, 1.5 mM DTT, 1 mM [Adenin-2,8-^3H]-NAD^+ (4,500 cpm/nmol), 10 μg activated DNA and 10 μg histone. With or without the presence of 4-quinazolinone derivatives, the samples were incubated for 15 minutes, then the reactions were brought to stop by the addition of 8% trichloroacetic acid. After the addition of 0.5 mg albumin the samples were allowed to precipitate for 20 minutes on ice, then the insoluble substances were filtered on a glass filter, collected and washed five times with 5% perchloric acid. The protein-bound radioactivity was measured by LS-200 Beckman scintillation counter, the data is presented in μM in Table 2.

[2] = system: WRL-68 human liver cell line; assay: Protecting effect against hydrogen peroxide induced cell death in WRL-68 cells (MTT cell survival); assay type: cell-based; conditions: 3 hours; for IC50: read-out: IC50: concentration where the hydrogen peroxide induced cell death was inhibited by 50%; for Emax: read-out: Maximum protection
Procedure: The protecting effect of 4-quinazolinone derivatives against cell death caused by hydrogen peroxide in WRL-68 human liver cell line.
The human WRL-68 cell line was obtained from American Type Culture Collection (Rockville, Md.). The one layer thick cell lines were cultured in Dulbecco's modified. Eagle medium containing 1% antibiotic-antimycotic solution and 10% fetal calf serum under humid 37° C. air containing 5% CO2. The cells were separated every three days.
The cells were transformed to a 96-well plate with 2.5×10^4 cells/well initial concentration and were cultured overnight in humid 37° C. air containing 5% CO2. The following day 0.3 mM hydrogen peroxide was added to the medium either by itself or in the presence of one of the protecting agents. Three hours later the medium was removed and 0.5% water-soluble mitochondria stain, 3-(4,5-dimethylthiazol-2-yl)-2;5-diphenyl-tetrazolium bromide (MTT^+) was added to the cells. […] The optical density was determined at 550 nm by Anthos Labtech 2010 ELISA Reader (Wien, Austria). In every experiment at least 6 parallel samples were treated and the experiments were repeated three times. Table 1 presents the concentrations (given in μM) where the hydrogen peroxide induced cell death was inhibited by 50%.

[3] = Homo sapiens, WRL68, 0.3 mM hydrogen peroxide

Structure (SMILES): CN(C)CCSc1nc2ccccc2c(=O)[nH]1 [Compound 17a]
IC50 [1]: 2 µM
IC50 [2, 3]: 0.15 µM
Emax [2, 3]: 68%

Structure (SMILES): CC1(C)C=C(CSC2=Nc3ccccc3C(=O)C2)CC(C)(C)N1 [Compound 15, 2-{[(2,2,6,6-Tetramethyl-1,2,3,6-tetrahydropyridin-4-yl)methyl]thio}quinolin-4(3H)-one]
IC50 [2, 3]: 10 µM
Emax [2, 3]: 61%

Structure (SMILES): Cc1nc2ccccc2c(=O)[nH]1 [Compound 2, 2-methylquinazolin-4(3H)one, reference compound]
IC50 [2, 3]: 4 µM
Emax [2, 3]: 54%

Structure (SMILES): CC1(C)C=C(c2nc3ccccc3c(=O)[nH]2)CC(C)(C)N1 [Compound 24, 2-(2,2,6,6-Tetramethyl-1,2,3,6-tetrahydropyridin-4-yl)quinazolin-4(3H)-one]
IC50 [2, 3]: 12 µM
Emax [2, 3]: 50%

melting point: 254 to 256 °C
Structure (SMILES): CC1(C)C=C(c2nc3ccccc3c(=O)[nH]2)C(C)(C)N1 [Compound 22, 2-(2,2,5,5-Tetramethyl-2,5 dihydro-1H-pyrrol-3-yl)quinazolin-4(3H)-one]

Structure (SMILES): CC1(C)C=C(c2nc3ccccc3c(=O)[nH]2)CC(C)(C)N1O [Compound 23, 2-(1-Oxyl-2,2,6,6-tetramethyl-1,2,3,6-tetrahydropyridin-4-yl)quinazolin-4(3H)-one]
IC50 [2, 3]: 13 µM
Emax [2, 3]: 50%

melting point: 138 to 140 °C
Structure (SMILES): CC1(C)C=C(CSc2nc3ccccc3c(=O)[nH]2)C(C)(C)N1O [Compound 12, 2-{[(1-Oxyl-2,2,5,5-tetramethyl-2,5-dihydro-1H-pyrrol-3-yl)methyl]thio}quinazolin-4(3H)-one]

Structure (SMILES): O=c1[nH]c(S)nc2ccccc12 [Compound 3, 2-mercaptoquinazolin-4(3H)one, reference compound]
IC50 [2, 3]: 70 µM
Emax [2, 3]: 52%

IC50 [1]: 2.6 µM
Structure (SMILES): O=c1[nH]c(SCCN2CCCCC2)nc2ccccc12 [Compound 17c, 2-[(2-Piperidin-1-ylethyl)thio]quinazolin-4(3H)-one]
IC50 [2, 3]: 0.8 µM
Emax [2, 3]: 62%

Structure (SMILES): CC1(C)C=C(c2nc3ccccc3c(=O)[nH]2)C(C)(C)N1O [Compound 21, 2-(1-Oxyl-2,2,5,5-tetramethyl-2,5-dihydro-1H-pyrrol-3-yl)quinazolin-4(3H)-one]
IC50 [2, 3]: > 100 µM
Emax [2, 3]: 0%

Structure (SMILES): Cc1nc2ccccc2c(=O)n1CC1=CC(C)(C)NC1(C)C [Compound 9, 3-[(2,2,5,5-Tetramethyl-2,5-dihydro-1H-pyrrol-3-yl)methyl]-2-methylquinazolin-4(3H)-one]
IC50 [2, 3]: 10 µM
Emax [2, 3]: 15%

Structure (SMILES): Cc1nc2ccccc2c(=O)n1CC1=CC(C)(C)N([O])C1(C)C [Compound 8, 3-[(1-Oxyl-2,2,5,5-tetramethyl-2,5-dihydro-1H-pyrrol-3-yl)methyl]-2-methylqunazolin-4(3H)-one]
Maximum protection ([2]; 0.3 mM hydrogen peroxide): 0%
IC50 ([2]; 0.3 mM hydrogen peroxide): > 100 µM

IC50 [1]: 6 µM
Structure (SMILES): CN(C)CCCSc1nc2ccccc2c(=O)[nH]1 [Compound 17b, 2-{[3(Dimethylamino)propyl]thio}quinazolin-4(3H)-one]
IC50 [2, 3]: 4.8 µM
Emax [2, 3]: 65%

IC50 [1]: 1.6 µM
Structure (SMILES): CC1(C)CCCC(C)(C)N1CCSc1nc2ccccc2c(=O)[nH]1 [Compound 17d, 2-{[2-(2,2,6,6-Tetramethylpiperidin-1-yl)ethyl]thio}quinazolin-4(3H)-one]
IC50 [2, 3]: 0.1 µM
Emax [2, 3]: 69.6%

melting point: 150 to 151 °C
Structure (SMILES): CC1(C)C=C(CSc2nc3ccccc3c(=O)[nH]2)C(C)(C)N1 [Compound 13, 2-{[(2,2,5,5-Tetramethyl-2,5-dihydro-1H-pyrrol-3-yl)methyl]thio}quinazolin-4(3H)-one]
